Earlier results as cited in paper PMC7590008, “Slow Dissolution Kinetics of Model Peptide Fibrils” (International Journal of Molecular Sciences, 2020).
Structures can show the parent of a compound that is named as a salt.

Conditions: can be considered a strong acid
Excerpt: First of all, for c<cs , the pH ≈6.3 is essentially the same as that of pure water (with some dissolved CO 2 ). This means that the A 8 K is a neutral salt and not a net acid or base. This implies that we can write the compound as PH ^+ TFA ^− , where P stands for the A 8 K peptide. The dry compound is a TFA salt, but with only one TFA counterion, because the carboxyl group is neutralized by one of the two ammonium groups ...

Which pK a does the source give for `O=C(O)C(F)(F)F` [TFA, Trifluoroacetate] here?
The pK a was “≈ 1”.
